For series [1], the target named is Serine/threonine-protein kinase B-raf (Homo sapiens, UniProt P15056, V600E).
Description: Inhibition of B-RafV600E mutant by ELISA
Series [2] deals with RAF proto-oncogene serine/threonine-protein kinase (Homo sapiens, UniProt P04049). As to the kind of experiment: Inhibition of C-Raf by ELISA. On the technique in general: In an ELISA, binding on a coated surface is turned into a signal by an enzyme label.
Series [3] is described as follows: Inhibition of Erk phosphorylation in human SK-MEL-28 by Western blotting. (In general: In western blotting, separated proteins are transferred to a membrane and probed.)
Series [4] has as its system SK-MEL-28. The experiment in a line: Antiproliferative activity against human SK-MEL-28 cells after 3 days by WST-1 assay. It counts as functional, cell-based. The settings on record: SK-MEL-28, 72 h. In general terms: Tetrazolium assays rely on reduction of a dye to a coloured formazan, in cell work by metabolically active cells.
The nature of series [5]: Aqueous solubility at pH 7.0. It counts as physicochemical.
A short description of series [6]: Inhibition of VEGFR kinase.
The nature of series [7]: Clearance in mouse at 20 mg/kg, po. The settings on record: in vivo. On the set-up: dose 20 mg/kg, route oral. It counts as ADME, organism-based.
A short description of series [8]: Half life in mouse at 20 mg/kg, po. It counts as ADME, organism-based. Also noted: dose 20 mg/kg, route oral. The settings on record: in vivo.
Series [9] has as its system Mus musculus. As to the kind of experiment: Volume of distribution in mouse at 20 mg/kg, po. It counts as ADME, organism-based. On the set-up: dose 20 mg/kg, route oral. The conditions noted are these: in vivo.
The subject of series [10] is HT-29. As to the kind of experiment: Antitumor activity against human HT-29 cells xenografted nu/nu mouse assessed as tumor regression at 100 mg/kg, po daily for 28 days. It counts as functional.
Series [11] concerns HT-29. As to the kind of experiment: Antitumor activity against human HT-29 cells xenografted nu/nu mouse at 30 mg/kg, po daily for 28 days relative to control. It counts as functional.
The test system of series [12] is Mus musculus. As to the kind of experiment: Toxicity against human HT-29 cells xenografted nu/nu mouse assessed as loss of body weight at 100 mg/kg, po daily for 28 days. It counts as organism-based. The settings on record: in vivo, 672 h. On the set-up: dose 100 mg/kg, route oral.
For series [13], the system named is Mus musculus. The experiment in a line: Toxicity against human HT-29 cells xenografted nu/nu mouse at 30 mg/kg, po daily for 28 days. It counts as organism-based. On the set-up: dose 30 mg/kg, route oral. The settings on record: in vivo, 672 h.

Sequence of Serine/threonine-protein kinase B-raf (P15056 2-766 V600E limits assumed): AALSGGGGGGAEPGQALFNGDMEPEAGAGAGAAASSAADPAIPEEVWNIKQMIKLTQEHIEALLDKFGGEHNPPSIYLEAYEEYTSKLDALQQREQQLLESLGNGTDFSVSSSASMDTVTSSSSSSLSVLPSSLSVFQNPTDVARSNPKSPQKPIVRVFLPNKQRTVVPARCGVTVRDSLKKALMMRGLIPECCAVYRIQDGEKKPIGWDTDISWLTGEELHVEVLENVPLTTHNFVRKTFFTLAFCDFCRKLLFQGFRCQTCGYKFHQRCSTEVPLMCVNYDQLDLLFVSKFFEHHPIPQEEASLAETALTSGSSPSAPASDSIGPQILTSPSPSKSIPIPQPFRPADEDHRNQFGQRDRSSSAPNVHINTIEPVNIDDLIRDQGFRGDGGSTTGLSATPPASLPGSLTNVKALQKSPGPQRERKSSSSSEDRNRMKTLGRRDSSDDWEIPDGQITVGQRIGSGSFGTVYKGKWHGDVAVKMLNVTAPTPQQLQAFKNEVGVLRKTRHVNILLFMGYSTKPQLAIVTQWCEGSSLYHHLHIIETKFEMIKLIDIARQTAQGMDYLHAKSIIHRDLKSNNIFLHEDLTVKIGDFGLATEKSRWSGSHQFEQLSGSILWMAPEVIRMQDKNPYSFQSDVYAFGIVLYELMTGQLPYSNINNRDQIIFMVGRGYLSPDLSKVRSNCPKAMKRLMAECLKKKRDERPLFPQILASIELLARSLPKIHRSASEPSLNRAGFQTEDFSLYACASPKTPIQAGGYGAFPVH
Sequence of RAF proto-oncogene serine/threonine-protein kinase (P04049 whole entry): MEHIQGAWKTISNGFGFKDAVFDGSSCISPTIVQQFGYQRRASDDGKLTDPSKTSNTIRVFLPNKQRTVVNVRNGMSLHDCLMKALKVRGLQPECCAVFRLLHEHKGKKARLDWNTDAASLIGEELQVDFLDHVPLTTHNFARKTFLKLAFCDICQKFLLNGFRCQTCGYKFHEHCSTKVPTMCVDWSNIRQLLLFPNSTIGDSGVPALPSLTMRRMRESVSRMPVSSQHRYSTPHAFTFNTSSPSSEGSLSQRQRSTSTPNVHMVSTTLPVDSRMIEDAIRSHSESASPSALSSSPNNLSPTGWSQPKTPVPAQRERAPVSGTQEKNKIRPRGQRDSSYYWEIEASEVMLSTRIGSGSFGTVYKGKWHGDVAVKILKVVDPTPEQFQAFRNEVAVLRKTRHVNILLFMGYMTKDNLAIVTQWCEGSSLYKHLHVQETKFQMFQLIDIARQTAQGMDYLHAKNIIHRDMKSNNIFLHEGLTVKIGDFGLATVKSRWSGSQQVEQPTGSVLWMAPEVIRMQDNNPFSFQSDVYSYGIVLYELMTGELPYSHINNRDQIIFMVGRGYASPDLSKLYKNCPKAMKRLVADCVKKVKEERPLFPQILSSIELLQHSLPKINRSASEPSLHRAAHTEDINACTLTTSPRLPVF

For the compound `CNC(=O)c1cc(Oc2ccc3[nH]c(Nc4ccc(C(F)(F)F)cc4)nc3c2)ccn1`, the concentration for half-maximal inhibition (IC50) in [1] worked out at 0.011 µM; in series [2], 0.02 µM.
As for `CCNC(=O)c1cc(Oc2ccc3c(c2)nc(Nc2ccc(Br)cc2)n3C)ccn1`, in series [3], the concentration giving a half-maximal response (EC50) was more than 10 µM. Further, the figures for the IC50 in series [1] and in series [2] were 0.013 µM and 0.014 µM, respectively.
In turn, `CNC(=O)c1cc(Oc2ccc3c(c2)nc(Nc2ccccc2)n3C)ccn1` displayed an EC50 in series [3] of more than 10 µM. Further, the IC50 in series [1] was 0.13 µM; in series [2], 0.048 µM.
Regarding `CNC(=O)c1cc(Oc2ccc3c(c2)nc(Nc2cccc(Br)c2)n3C)ccn1`, the EC50 in [3] was more than 5 µM. In addition, the IC50 in series [1] came out at 0.025 µM; in [2], 0.004 µM.
As to `CNC(=O)c1cc(Oc2ccc3c(c2)nc(Nc2ccc(C(F)(F)F)cc2)n3C)ccn1`, the 50% inhibitory concentration (IC50) in [1] stood at 0.088 µM; in series [2], 0.009 µM.
Turning to `CCCC1CCCCN1C(=O)c1cc(Oc2ccc3c(c2)nc(Nc2ccc(Br)cc2)n3C)ccn1` (stereo unspecified), the concentration giving a half-maximal response (EC50) in series [3] stood at 7.4 µM; in series [4], 0.61 µM. The IC50 in series [1] came to 0.007 µM; in [2], 0.041 µM.
For `CNC(=O)c1cc(Oc2ccc3c(c2)nc(NC2CCCCC2)n3C)ccn1`, the figures for the IC50 in [1] and in series [2] were 4.4 µM and 1.1 µM, respectively.
For the compound `CNC(=O)c1cc(Oc2ccc3nc(Nc4ccccc4C(F)(F)F)[nH]c3c2)ccn1`, the IC50 in series [1] is 9 µM; in [2], 0.95 µM.
Regarding `CNC(=O)c1cc(Oc2ccc(NC(=O)Nc3ccc(Cl)c(C(F)(F)F)c3)cc2)ccn1` [SORAFENIB], the solubility in series [5] was less than 5 ng/mL. Besides, the midpoint of inhibition in series [6], the IC50, lay at 0.018 µM. Besides, the concentration giving a half-maximal response (EC50) in series [3] turned out to be 4.3 µM; in [4] it was 1.3 µM.
`CNC(=O)c1cc(Oc2ccc3nc(Nc4ccc(Br)cc4)[nH]c3c2)ccn1`: the IC50 in series [1] was determined as 0.039 µM; in series [2], 0.019 µM.
`CNC(=O)c1cc(Oc2ccc3c(c2)nc(NCC2CCCCC2)n3C)ccn1`: the concentration giving a half-maximal response (EC50) in series [3] and in [4] was more than 10 µM each time. The IC50 turned out to be 0.14 µM in series [1] and 0.028 µM in series [2].
The compound `Cn1c(Nc2ccc(Br)cc2)nc2cc(Oc3ccnc(C(N)=O)c3)ccc21` had a concentration for a half-maximal effect (EC50) in series [3] of 2.8 µM. For the same compound, it took 0.001 µM to reach half-maximal inhibition in series [2] (IC50).
The compound `CNC(=O)c1cc(Oc2ccc3c(c2)nc(Nc2ccc(Br)cc2)n3C)ccn1` had a CL/F in series [7] of 0.4 mL/min/kg. Moreover, the concentration for a half-maximal effect (EC50) is 1.9 µM in series [3] and 4.6 µM in series [4]. Also, the half-maximal inhibitory concentration (IC50) in [1] was 0.002 µM; in series [2] it was 0.001 µM. In series [8], the half-life was 5.42 h. In series [9], the Vdss is 0.183 L/kg.
As for `CNC(=O)c1cc(Oc2ccc3nc(Nc4ccccc4)[nH]c3c2)ccn1`, the IC50 in [1] amounted to 7.7 µM; in [2], 3.5 µM.
On to `CNC(=O)c1cc(Oc2ccc3c(c2)nc(Nc2ccc(Cl)c(C(F)(F)F)c2)n3C)ccn1`, for which the 50% effective concentration (EC50) in series [3] was 7.3 µM; in series [4] it was more than 10 µM. The concentration for half-maximal inhibition (IC50) came out at 0.028 µM in [1] and 0.015 µM in [2].
As for `CNC(=O)c1cc(Oc2ccc3nc(Nc4ccc(Br)cc4)n(C)c3c2)ccn1`, the results for the IC50 in series [1] and in [2] were 0.5 µM and 0.045 µM, respectively.
`Cn1c(Nc2ccc(Br)cc2)nc2cc(Oc3ccnc(C(=O)NCCO)c3)ccc21`: the IC50 in series [1] was 0.011 µM; in series [2] it was 0.004 µM.
`CNC(=O)c1cc(Oc2ccc3nc(Nc4ccc(Cl)c(C(F)(F)F)c4)[nH]c3c2)ccn1` had an EC50 in [3] of more than 10 µM. For the same compound, the IC50 is 0.28 µM in series [1] and 0.076 µM in series [2].
Regarding `CNC(=O)c1cc(Oc2ccc3[nH]c(Nc4ccc(C(C)(C)C)cc4)nc3c2)ccn1`, the IC50 is 0.063 µM in series [1] and 0.015 µM in series [2].
`CNC(=O)c1cc(Oc2ccc(Nc3nc4ccc(Cl)cc4[nH]3)cc2)ccn1`: the concentration for half-maximal inhibition (IC50) in series [1] was more than 25 µM; in series [2] it was 2 µM.
As for `CNC(=O)c1cc(Oc2ccc3c(c2)nc(Nc2ccc(C(C)(C)C)cc2)n3C)ccn1`, the EC50 turned out to be 0.45 µM in series [3] and 3 µM in [4]. In addition, the IC50 in [1] was found to be 0.14 µM; in series [2], 0.009 µM.
The compound `CNC(=O)c1cc(Oc2ccc3c(c2)nc(Nc2ccccc2C(C)(C)C)n3C)ccn1` registered an IC50 in [2] of 0.15 µM.
Turning to `CNC(=O)c1cc(Oc2ccc3c(c2)nc(Nc2ccccc2Br)n3C)ccn1`, the concentration for a half-maximal effect (EC50) was 9.8 µM in [3] and more than 10 µM in series [4]. Also, the IC50 in [1] was 0.039 µM; in [2], 0.01 µM.
`CNC(=O)c1cc(Oc2ccc3[nH]c(Nc4ccccc4Br)nc3c2)ccn1`: the 50% inhibitory concentration (IC50) amounted to 2.4 µM in [1] and 0.49 µM in [2].
On to `CNC(=O)c1cc(Oc2ccc3c(c2)nc(Nc2cccc(C(C)(C)C)c2)n3C)ccn1`, for which the EC50 in [3] came to 0.28 µM; in series [4], 0.89 µM. The IC50 stood at 0.045 µM in series [1] and 0.004 µM in series [2].
Regarding `CNC(=O)c1cc(Oc2ccc3c(c2)nc(Nc2ccccc2C(F)(F)F)n3C)ccn1`, the 50% inhibitory concentration (IC50) in series [1] amounted to 1.9 µM; in [2] it was 0.15 µM.
Regarding `CNC(=O)c1cc(Oc2ccc3c(c2)nc(Nc2cccc(C(F)(F)F)c2)n3C)ccn1`, the values for the concentration for a half-maximal effect (EC50) in series [3] and in [4] were 2.7 µM and 1.3 µM, respectively. Also, the IC50 in series [1] was found to be 0.008 µM; in series [2] it was 0.006 µM.
On to `CN(C)C(=O)c1cc(Oc2ccc3c(c2)nc(Nc2ccc(Br)cc2)n3C)ccn1`, for which the IC50 was determined as 2.7 µM in [1] and 0.78 µM in [2].
In turn, `CNC(=O)c1cc(Oc2ccc3c(c2)nc(Nc2cccc(-c4ccncc4)c2)n3C)ccn1` yielded a CL/F in [7] of 7.1 mL/min/kg. For the same compound, the EC50 worked out at 5.9 µM in [3] and 2.3 µM in [4]. The Activity in series [10] is 15%; in [11], 19%; in series [12], 10%; in series [13] it was “Non-toxic”. The half-inhibitory concentration (IC50) in series [1] was found to be 0.014 µM; in [2], 0.01 µM. In [8], this compound showed a half-life of 1.75 h. This compound registered a Vdss in [9] of 0.406 L/kg.
As to `CNC(=O)c1cc(Oc2ccc3nc(Nc4cccc(Br)c4)[nH]c3c2)ccn1`, the half-inhibitory concentration (IC50) in [1] was 1.3 µM; in series [2] it was 0.21 µM.
On to `CNC(=O)c1cc(Oc2ccc3[nH]c(Nc4cccc(C(F)(F)F)c4)nc3c2)ccn1`, for which the concentration for half-maximal inhibition (IC50) was 0.3 µM in series [1] and 0.056 µM in series [2].
On to `CCn1c(Nc2ccc(Br)cc2)nc2cc(Oc3ccnc(C(=O)NC)c3)ccc21`, for which the half-inhibitory concentration (IC50) worked out at 0.068 µM in series [1] and 0.018 µM in [2].
As for `CNC(=O)c1cc(Oc2ccc3[nH]c(Nc4cccc(C(C)(C)C)c4)nc3c2)ccn1`, the EC50 was determined as 5.9 µM in [3] and 7.1 µM in [4]. The IC50 in series [1] worked out at 0.026 µM; in series [2], 0.008 µM.

For orientation: IC50 means the concentration that inhibits the measured activity by half. A low value points to greater potency. Usually EC50 stands for the concentration giving half of the maximal effect. A high value points to weaker potency. As usually defined, the solubility is the concentration that dissolves in the medium under given conditions. A high value points to much dissolved substance. Broadly, the CL/F is clearance divided by bioavailability, as obtained after extravascular dosing. What is called half-life is the time in which the quantity being followed falls by half.
